Data published in patent US20020022652A1, “Methylnogarol compositions and uses thereof” (priority 2000, published 2002).
Where two headings read alike, the source gives them in different places.

System: murine fibrosarcomas (RIF−1 cells)
Assay type: in vivo
Conditions: for Mean TVQT (± SE): RIF-1 tumors in C3H mice, paclitaxel 10 mg/kg, camptothecin 6 mg/kg, combinations with second agent 30 min after menogaril; for Mean TVQT (± SE) / Mean TVQT ± S.E.: menogaril 50 mg/kg; for Delay: median TVQT of treated group minus median of control; for Delay / TVQT/CTVQT / Median (TVQT): same doses; for Mean TVQT ± S.E.: RIF-1 tumors in female C3H mice, single i.p. injection, cisplatin 4 mg/kg, combination with cisplatin 30 min after menogaril, 4 mice per group
Procedure: Transplantable experimental murine fibrosarcomas (2×10^5 RIF−1 cells) were grown intradermally in the flanks of 3 month old female C3H mice (Charles River, Holister, Calif.). When the tumors reached a volume of approximately 100 mm^3, the mice were randomly assigned to each experimental group (4 mice per group).
The chemopotentiator, menogaril, was obtained from NCI and was made to the appropriate concentration in DMSO. Cisplatin (David Bull Laboratories- Mulgrave, Australia, lot. 5201844x) was made to the appropriate concentration in water for injection. The compositions were injected systemically (i.e., intraperitoneally, i.p.), in a volume of 100 microliters. For the treatment of group 3, the chemopotentiator, menogaril, was injected 30 minutes prior to the injection of cisplatin. After treatment, the growth of the tumors was monitored three times per week by caliper measurements of three perpendicular diameters of the tumor and calculation of tumor volume from the formula: […]
The tumors were followed until they reached a size of four times their day zero treatment volume (TVQT), or up to 30 days after treatment, whichever came first. The data is expressed as the “tumor volume quadrupling time” (TVQT) mean and as the “delay.” Mean TVQT is the mean days required for individual tumors to grow to four times the tumor volume at the initial treatment day. The “delay” is the median of days required for a tumor to grow to four times the mean size of the treated group, minus the median of days required to grow to four times the mean size of the control group. The data is also expressed as the ratio of the tumor volume quadrupling time of the treated tumor over the untreated control group (TVQT/CTVQT). Increasing values of this ratio indicate increased antitumor response.
The ability of menogaril to enhance the effect of camptothecin or paclitaxel was also studied, using the same methods described in Example 1. […] For each injection, 100 microliters was injected.

[1] = Example 2, Table 4, ratio of treated group over untreated control, IP
[2] = Example 1, Table 3, ratio of TVQT of treated group over untreated control, i.p.

Row | SMILES | Mean TVQT (± SE) (Example 2, Table 4, IP) | Delay (Example 2, Table 4, IP) | TVQT/CTVQT [1] | Median (TVQT) (Example 2, Table 4, IP) | Mean TVQT ± S.E. (Example 1, Table 3) | Delay (Example 1, Table 3, i.p.) | TVQT/CTVQT [2] | Median (TVQT) (Example 1, Table 3, i.p.)
1 | CC[C@@]1(O)C(=O)OCc2c1cc1n(c2=O)Cc2cc3ccccc3nc2-1 [Camptothecin, camptothecin] | 9.9 ± 0.5 days | 1.44 | 1.1 | 9.8 days | – | – | – | –
2 | N.N.[Cl][Pt][Cl] [Cisplatin, cis-diamminedichloroplatinum II] | – | – | – | – | 8.4 ± 0.3 days | 2.10 days | 1.3 | 8.1 days
3 | CO[C@@H]1C[C@](C)(O)Cc2cc3c(c(O)c21)C(=O)c1c(O)cc2c(c1C3=O)O[C@@H]1O[C@@]2(C)[C@H](O)[C@@H](N(C)C)[C@@H]1O [Menogaril, 2,6-Epoxy-2H-naphthaceno[1,2-b]oxocin-9,16-dione, 4-(dimethylamino)-3,4,5,6,11,12,13,14-octahydro-3,5,8,10,13-pentahydroxy-11-methoxy-6,13-dimethyl-,(2alpha,3beta,4alpha,5beta,6alpha, 11 alpha, 13alpha)-, (P)-] | 10.2 ± 0.8 days | 1.84 | 1.2 | 10.2 days | 9.1 ± 0.5 days | 3.31 days | 1.4 | 9.4 days
4 | CC(=O)O[C@H]1C(=O)[C@@]2(C)[C@H]([C@H](OC(=O)c3ccccc3)[C@]3(O)C[C@H](OC(=O)[C@H](O)[C@@H](NC(=O)c4ccccc4)c4ccccc4)C(C)=C1C3(C)C)[C@]1(OC(C)=O)CO[C@@H]1C[C@@H]2O [Paclitaxel, paclitaxel] | 9.0 ± 0.4 days | 0.36 | 1.0 | 8.7 days | – | – | – | –
